Reference: US20230265098A1, “ALKYNE QUINAZOLINE DERIVATIVES AS INHIBITORS OF ERBB2” (EnLiven Therapeutics, Inc., priority 2020, published 2023)
pIC50: −log10 of the molar value. Where a name gives a salt, the structure may show the parent alone.

What was measured:
[1] = target: T1, phosphorylated ERBB2 (pERBB2) (Homo sapiens, UniProt P04626); experiment: Detection of phosphorylated ERBB2 (pERBB2) by ELISA in BT-474 cells; type: cell-based; conditions: four hours incubation with compound, OD 450 nm
T1 construct: endogenous in cells; host or cells: BT-474
T1 sequence (P04626 23-1255): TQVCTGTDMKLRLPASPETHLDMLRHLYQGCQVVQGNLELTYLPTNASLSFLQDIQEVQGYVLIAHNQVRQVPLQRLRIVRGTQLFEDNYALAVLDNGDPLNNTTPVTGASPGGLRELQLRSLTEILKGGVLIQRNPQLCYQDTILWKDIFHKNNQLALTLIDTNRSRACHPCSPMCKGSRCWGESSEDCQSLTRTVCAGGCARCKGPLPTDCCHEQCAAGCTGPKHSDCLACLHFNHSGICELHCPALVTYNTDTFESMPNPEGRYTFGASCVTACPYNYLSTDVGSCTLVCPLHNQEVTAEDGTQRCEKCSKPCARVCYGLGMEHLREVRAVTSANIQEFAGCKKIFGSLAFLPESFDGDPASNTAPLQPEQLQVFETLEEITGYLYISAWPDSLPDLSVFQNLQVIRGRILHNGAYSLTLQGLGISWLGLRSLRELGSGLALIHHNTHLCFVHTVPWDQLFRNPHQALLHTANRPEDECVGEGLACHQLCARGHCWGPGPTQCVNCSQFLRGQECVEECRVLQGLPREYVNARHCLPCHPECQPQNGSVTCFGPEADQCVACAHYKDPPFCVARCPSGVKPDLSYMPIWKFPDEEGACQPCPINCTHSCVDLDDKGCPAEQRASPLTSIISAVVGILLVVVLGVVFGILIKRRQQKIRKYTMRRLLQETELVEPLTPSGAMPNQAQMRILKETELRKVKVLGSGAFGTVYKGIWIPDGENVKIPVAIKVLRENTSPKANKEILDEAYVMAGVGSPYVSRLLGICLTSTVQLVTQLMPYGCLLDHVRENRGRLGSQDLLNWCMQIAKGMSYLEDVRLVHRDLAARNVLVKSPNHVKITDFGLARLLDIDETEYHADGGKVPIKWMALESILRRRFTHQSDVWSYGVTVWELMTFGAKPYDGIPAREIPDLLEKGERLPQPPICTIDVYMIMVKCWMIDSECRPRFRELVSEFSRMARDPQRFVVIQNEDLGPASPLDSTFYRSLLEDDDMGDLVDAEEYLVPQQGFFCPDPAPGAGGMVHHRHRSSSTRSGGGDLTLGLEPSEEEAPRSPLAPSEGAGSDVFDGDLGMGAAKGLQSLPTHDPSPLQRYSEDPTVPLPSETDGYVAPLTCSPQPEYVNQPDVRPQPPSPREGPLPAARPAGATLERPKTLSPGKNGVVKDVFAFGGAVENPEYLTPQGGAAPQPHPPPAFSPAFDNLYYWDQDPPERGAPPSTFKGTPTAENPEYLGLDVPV
Method: BT-474 cells were seeded into a 96-well at 2.0*10^4 cells/100 μl/well.
Compounds were dissolved and serially diluted in DMSO. The compounds were then were added, mixed, and incubated for four hours at 37° C., 5% CO2. Compounds were added using four-fold dilutions at final concentrations ranging from 10 μM to 0.01 nM.
Following the four hour incubation with compounds, cell lysates were prepared. Plates were centrifuged for 5 min at 3000 RPM, and supernatant was removed from each well. Cells were washed 3 times by resuspension in 150 μl PBS, followed by centrifugation and removal of the supernatant, as above. […] Cells were incubated with lysis buffer for 1 hour at 4° C., and then stored at −80° C.
Enzyme-linked immunosorbent assays (ELISA) were performed to measure phosphorylated ERBB2 levels. […] The next day, plates were washed with PBS+0.05% Tween20 (PBST). 150 μl of 5% BSA blocking solution was added for 1 hour at room temperature, with shaking. Plates were washed with PBST. Cell lysates were thawed and 100 μl of lysate was added to the ELISA plate. The plates were incubated for 2 hours at room temperature, with shaking. […] Plates were incubated for 1 hour at room temperature, with shaking. Plates were then washed with PBST, and 100 μl TMB substrate solution (R&D Systems, cat #DY999) was added. Plate were incubated in the dark for 20 minutes at room temperature. 50 μl of Stop solution (R&D Systems, cat #DY994) (50 μl) was added to each well and mixed.
Optical density at 450 nm was read on an EnSpire plate reader (Perkin Elmer). The remaining kinase activity by calculated using the following formula: % Relative activity=100×(A450sample−A450LC)/(A450HC−A450LC). The low and high control values (“LC” and “HC”) were generated from lysate from wells without cells or with cells treated with 0.1% DMSO, respectively.

[2] = target: T2, phosphorylated EGFR (pEGFR) (Homo sapiens, UniProt P00533); experiment: Detection of phosphorylated EGFR (pEGFR) in EGF-stimulated A431 cells (AlphaLISA); type: cell-based; conditions: A431 cells (10% FBS), 4 hours with compound, then EGF 30 ng/mL for 10 minutes
T2 construct: endogenous in cells; host or cells: A431
T2 sequence (P00533 25-1210): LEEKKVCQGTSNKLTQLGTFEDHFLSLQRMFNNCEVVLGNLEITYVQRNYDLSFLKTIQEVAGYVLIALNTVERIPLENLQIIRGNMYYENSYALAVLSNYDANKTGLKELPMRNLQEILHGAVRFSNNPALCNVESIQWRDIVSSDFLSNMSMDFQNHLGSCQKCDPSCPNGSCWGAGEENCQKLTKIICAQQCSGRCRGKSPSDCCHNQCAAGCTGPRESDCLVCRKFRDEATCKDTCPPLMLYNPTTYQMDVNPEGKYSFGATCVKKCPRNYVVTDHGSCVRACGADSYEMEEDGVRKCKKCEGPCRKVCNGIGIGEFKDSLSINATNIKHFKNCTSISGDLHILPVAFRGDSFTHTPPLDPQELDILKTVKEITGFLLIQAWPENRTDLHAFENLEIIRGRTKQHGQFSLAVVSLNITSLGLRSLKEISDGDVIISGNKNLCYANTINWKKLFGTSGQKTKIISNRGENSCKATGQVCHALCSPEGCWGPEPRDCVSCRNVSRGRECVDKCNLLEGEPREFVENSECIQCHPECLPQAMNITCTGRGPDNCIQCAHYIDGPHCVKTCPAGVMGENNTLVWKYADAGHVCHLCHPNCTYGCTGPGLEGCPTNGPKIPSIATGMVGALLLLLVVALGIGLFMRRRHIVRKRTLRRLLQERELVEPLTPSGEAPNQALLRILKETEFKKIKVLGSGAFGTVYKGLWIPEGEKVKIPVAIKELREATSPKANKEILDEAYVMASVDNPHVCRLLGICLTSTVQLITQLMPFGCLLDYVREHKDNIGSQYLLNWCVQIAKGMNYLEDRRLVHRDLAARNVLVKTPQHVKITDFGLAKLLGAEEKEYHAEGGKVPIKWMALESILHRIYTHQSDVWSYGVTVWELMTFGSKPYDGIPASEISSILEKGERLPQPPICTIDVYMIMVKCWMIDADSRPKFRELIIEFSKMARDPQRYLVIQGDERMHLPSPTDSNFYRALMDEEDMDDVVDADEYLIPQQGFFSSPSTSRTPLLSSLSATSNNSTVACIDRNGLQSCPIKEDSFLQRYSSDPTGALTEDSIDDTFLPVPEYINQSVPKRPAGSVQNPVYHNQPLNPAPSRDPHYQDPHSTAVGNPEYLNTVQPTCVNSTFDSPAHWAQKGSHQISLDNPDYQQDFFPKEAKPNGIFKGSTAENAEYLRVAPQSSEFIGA
Method: Enzyme-linked immunosorbent assays (ELISA) were performed to measure phosphorylated EGFR levels using A431 cells (10% FBS). A431 (1.0*10^4 cells/40 μl/well) cells were seeded in 384 well. Compounds were dissolved in DMSO, serially diluted in DMSO and then were added, mixed, and incubated for 4 hours at 37° C., 5% CO2. Following the 4-hours incubation, cells were stimulated for 10 minutes with EGF (Invitrogen, cat #PHG0311) at a final concentration of 30 ng/mL in the incubator. The media was aspirated and cells were lysed in 10 μL lysis buffer with protease and phosphatase inhibitors (PerkinElmer, cat #ALSU-PEGFR-A50K). The plates were placed on a shaker for 5 minutes and then incubated for 30 min at 4° C. for complete lysis. The lysate was transferred to an Optiplate (Perkin Elmer, cat #6007290).
Acceptor mix (PerkinElmer, cat #ALSU-PEGFR-A50K) was prepared just before use and 5 μL was dispensed to all the wells, followed by a 1.5-2 h incubation at room temperature in dark. The donor mix (PerkinElmer, cat #ALSU-PEGFR-A50K) was prepared under low light conditions prior to use and […] of donor mix was added to all the wells under subdued lighting or green filters. The plates were placed on a shaker for 5 min, sealed, and incubated overnight at room temperature in dark. Plates were read on the Envision (PerkinElmer) using standard AlphaLISA settings.
The percentage of inhibition on EGFR phosphorylation was calculated following equation: % Inhibition=100×(LumHC−LumSample)/(LumHC−LumLC). The low and high controls (LC/HC) are generated from lysate from wells with cells treated with DMSO or […] Staurosporine (BioAustralis, cat #BIA-S1086), […]. IC50 values were calculated by fitting the Curve using XLfit (v5.3.1.3), equation 201: Y=Bottom+(Top−Bottom)/(1+10^((LogIC50−X)*HillSlope)).

Row | pIC50 [1] | pIC50 [2] | SMILES
1 | 7.63 | 5.80 | CC#CC(=O)Nc1cc2c(Nc3ccc(Oc4ccn5ncnc5c4)c(C)c3F)ncnc2cc1OCCN(C)C [Compound 180, N-(4-((4-([1,2,4]triazolo[1,5-a]pyridin-7-yloxy)-2-fluoro-3-methylphenyl)amino)-7-(2-(dimethylamino)ethoxy)quinazolin-6-yl)but-2-ynamide]
2 | 7.85 | 6.38 | Cc1cc(Nc2ncnc3cc(OCCN(C)C)c(NC(=O)C#CC4CC4)cc23)ccc1Oc1ccn2ncnc2c1 [Compound 170, 3-cyclopropyl-N-{7-[2-(dimethylamino)ethoxy]-4-[(3-methyl-4-{[1,2,4]triazolo[1,5-a]pyridin-7-yloxy}phenyl)amino]quinazolin-6-yl}prop-2-ynamide hydrochloride]
3 | 7.64 | 6.01 | Cc1cc(Nc2ncnc3cc(OCCN(C)C)c(NC(=O)C#CC4CC4)cc23)c(F)cc1Oc1ccn2ncnc2c1 [Compound 181, N-(4-(4-([1,2,4]triazolo[1,5-a]pyridin-7-yloxy)-2-fluoro-5-methylphenylamino)-7-(2-(dimethylamino)ethoxy)quinazolin-6-yl)-3-cyclopropylpropiolamide formate]
4 | 6.92 | 5.59 | Cc1c(Oc2ccn3ncnc3c2)ccc(Nc2ncnc3cc(OCCN(C)C)c(NC(=O)C#CC4CC4)cc23)c1F [Compound 179, N-(4-((4-([1,2,4]triazolo[1,5-a]pyridin-7-yloxy)-2-fluoro-3-methylphenyl)amino)-7-(2-(dimethylamino)ethoxy)quinazolin-6-yl)-3-cyclopropylpropiolamide]
5 | 7.88 | 5.83 | CC#CC(=O)Nc1cc2c(Nc3cc(C)c(Oc4ccn5ncnc5c4)cc3F)ncnc2cc1OCCN(C)C [Compound 182, N-{7-[2-(dimethylamino)ethoxy]-4-[(2-fluoro-5-methyl-4-{[1,2,4]triazolo[1,5-a]pyridin-7-yloxy}phenyl)amino]quinazolin-6-yl}but-2-ynamide]
6 | 7.11 | 6.53 | Cc1cc(Nc2ncnc3ccc(NC(=O)C#CC4CC4)cc23)ccc1Oc1ccc([C@@H](F)CF)nc1 [Compound 188, (R)-3-cyclopropyl-N-(4-((4-((6-(1,2-difluoroethyl)pyridin-3-yl)oxy)-3-methylphenyl)amino)quinazolin-6-yl)propiolamide]
7 | 7.79 | 7.13 | CC#CC(=O)Nc1cc2c(Nc3ccc(Oc4ccc(C)nc4)c(C)c3)ncnc2cc1OCCN(C)C [Compound 186, N-{7-[2-(dimethylamino)ethoxy]-4-({3-methyl-4-[(6-methylpyridin-3-yl)oxy]phenyl}amino)quinazolin-6-yl}but-2-ynamide]
8 | 7.94 | 6.26 | CC#CC(=O)Nc1cc2c(Nc3cc(Cl)c(Oc4ccn5ncnc5c4)cc3F)ncnc2cc1OCCN(C)C [Compound 197, N-(4-((4-([1,2,4]triazolo[1,5-a]pyridin-7-yloxy)-5-chloro-2-fluorophenyl)amino)-7-(2-(dimethylamino)ethoxy)quinazolin-6-yl)but-2-ynamide]
